From patent US4120810A, “Paint remover with improved safety characteristics” (priority 1976, dated 1978)
Like-named read-outs stand apart in the source and are kept apart here.

Key:
[1] = cited from earlier work
[2] = Deglosser test: adhesion of latex enamel to wiped alkyd enamel (Example 6); conditions: after wiping off cooking oil with saturated paper towel, painting and drying
Procedure: The mixture of Example 5 and straight diacetone alcohol were tested as deglossers, wherein an alkyd surface was covered with cooking oil. Then a paper towel saturated with the liquid was used to wipe off both the oil and the surface sheen of the alkyd enamel. This was followed by painting with latex enamel. […] Said commercially available deglossers contained such chemicals as methylene chloride, alcohols, and petroleum distillates.

[3] = Paint stripping, xylene and diacetone alcohol mixture (Example 7)
Source text: A 50 mole percent mixture of xylene and diacetone alcohol was compared against the pure components on a number of substrates for use as paint strippers. […] On an alkyd sash and trim paint the xylene was ineffective.

[4] = Minutes to complete bubbling / softening of finishes (Example 5)
Procedure: A 50 mole percent mixture of diacetone alcohol as the first chemical and Panasol AN-1 as the second chemical was compared against pure diacetone alcohol on a variety of surfaces.
Latex enamel was also tested.

[5] = 75° F.; cited from earlier work
[6] = Paint removal comparison of NMP/Panasol AN-1 mixtures with the pure components (Example 1)
Procedure: Various mixtures of Panasol AN-1 and NMP were compared against the paint removal efficiency of the pure components. The following surfaces were tested: alkyd enamel, polyurethane varnish, two-part epoxy enamel, polyurethane marine enamel, latex enamel, and a surface with seven layers of aged alkyd enamels.
The straight line drawn at a 45° angle represents the expected effectiveness, based on the state of the art with an averaging of the properties of the pure components (R. S. Downing, ibid.).

[7] = Paint removal, NMP and benzyl alcohol (Example 9); conditions: alone
Source text: However, its mixture with NMP had substantially less effectiveness than either pure component.

[8] = Paint removal, N-vinyl 2-pyrrolidone mixtures and pyrrolidone 2 (Example 4); conditions: variety of surfaces, as in Example 1
Procedure: N-vinyl 2-pyrrolidone was substituted for NMP in the mixtures prepared in Example 1. They were tested as a paint remover on a variety of surfaces, also as in Example 1.

## CC(C)=O [Acetone]
[1]; background literature
  toxicity / health effects in words: low toxicity

## CC(=O)CC(C)(C)O [Diacetone Alcohol, diacetone alcohol]
[2]
  adhesion of the latex enamel to the alkyd enamel: excellent
[3]; alkyd sash and trim paint
  paint stripping effectiveness: effective but very slow
[3]; brushing lacquer
  paint stripping effectiveness: equally effective
[4]; Acrylic enamel
  Minutes to Complete Bubbling: 32 min
[4]; Alkyd enamel
  Minutes to Complete Bubbling: 40 min
[4]; Latex enamel (does not bubble)
  time to softening: 4 min
[4]; Polyurethane varnish
  Minutes to Complete Bubbling: 36 min
[4]; alkyd and epoxy surfaces
  softening and bubbling: would soften alkyd and epoxy surfaces, permitting scraping but would not bubble them in a reasonable time
[4]; polyurethane enamel
  Minutes to Complete Bubbling: 17 min

## CO [Methanol]
[1]; Sax, Dangerous Properties of Industrial Materials
  elimination: slowness with which it is eliminated
[1]; background literature
  toxicity / health effects in words: prolongs the period of cardiovascular stress caused by the methylene chloride
[1]; background literature, listed as methanol
  toxicity / health effects in words: Severe exposures may cause dizziness, unconsciousness, sighing respiration, cardiac depression and eventually death

## ClCCl [Methylene chloride]
[5]
  vapor pressure: 400 mm Hg
[1]; background literature
  metabolism: metabolized to carbon monoxide

## CN1CCCC1=O [NMP, n-methyl 2 pyrrolidone]
[6]; epoxy
  removal time: ten
[6]; old lead based paint
  paint removal effectiveness: equally effective
[6]; one surface with a modern coating
  paint removal effectiveness: would not succumb to NMP
[6]; polyurethane enamel
  removal time: 5 min

## c1ccccc1 [benzene]
[1]; background literature
  toxicity / health effects in words: induces severe chronic toxic effects, causing anemia and damaging the bone marrow

## OCc1ccccc1 [benzyl alcohol]
[7]
  paint removal ability: some ability to soften paint and remove it

## O=C1CCCN1 [pyrrolidone 2]
[8]
  paint removal effectiveness: ineffective as a paint remover

## xylene
[3]; alkyd sash and trim paint
  paint stripping effectiveness: ineffective
[3]; brushing lacquer
  paint stripping effectiveness: ineffective
[3]; latex flat paint
  paint stripping effectiveness: very slow acting
